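Briefly, cells in 96-well plates were exposed to five compound concentrations for 48 h, and endpoints were estimated by linear interpolation. GI50 is the concentration that inhibits growth by half.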 Calls of active or inactive are those of the source. Cut-off read from the data, not from the text of the source: active = GI50 up to about 1.1 µM and inactive = higher. Residues, ends and D or L forms follow the SMILES beside them. *: point of attachment. Boc = CC(C)(C)OC(=O)*; Bz = O=C(c1ccccc1)*
What was measured:
Assay in all cases: NCI-60 cell line screen, 48 h
[1] = system: BT-549
[2] = system: DU-145
[3] = system: HCT-116
[4] = system: HOP-62
[5] = system: HOP-92
[6] = system: Hs-578T
[7] = system: K562
[8] = system: MCF7
[9] = system: MDA-N
[10] = system: Malme-3M
[11] = system: NCI/ADR-RES
[12] = system: OVCAR-3
[13] = system: RPMI-8226
[14] = system: RXF 393
[15] = system: SF-539
[16] = system: SK-MEL-5
[17] = system: SK-OV-3
[18] = system: SNB-75
[19] = system: UACC-62
[20] = system: U-251

| Compound | GI50 [1] | GI50 [2] | GI50 [3] | GI50 [4] | GI50 [5] | GI50 [6] | GI50 [7] | GI50 [8] | GI50 [9] | GI50 [10] | GI50 [11] | GI50 [12] | GI50 [13] | GI50 [14] | GI50 [15] | GI50 [16] | GI50 [17] | GI50 [18] | GI50 [19] | GI50 [20] |
| --- | --- | --- | --- | --- | --- | --- | --- | --- | --- | --- | --- | --- | --- | --- | --- | --- | --- | --- | --- | --- |
| Cc1ccc([N+](=O)[O-])cc1S(=O)(=O)Nc1ccc(C2=NOC(c3ccccc3)C2)cc1 (configuration not stated) | 12.4 µM (inactive) | 12 µM (inactive) | 7.08 µM (inactive) | 5.3 µM (inactive) | 15.7 µM (inactive) | 19.8 µM (inactive) | 1.96 µM (inactive) | 3.25 µM (inactive) | 1.99 µM (inactive) | 8.63 µM (inactive) | 3.04 µM (inactive) | 3.33 µM (inactive) | 4.7 µM (inactive) | 1.82 µM (inactive) | 9.77 µM (inactive) | 6.47 µM (inactive) | 11.5 µM (inactive) | 8.18 µM (inactive) | 3.85 µM (inactive) |  |
| CN(C)CCCNc1c2ccccc2nc2cccc([N+](=O)[O-])c12 | 0.00252 µM (active) | 0.00257 µM (active) | 0.00152 µM (active) | 0.0011 µM (active) | < 0.001 µM (active) | 0.00288 µM (active) | < 0.001 µM (active) | < 0.001 µM (active) | 0.00102 µM (active) | < 0.001 µM (active) | 0.00798 µM (active) | 0.0143 µM (active) | < 0.001 µM (active) | 0.00118 µM (active) | 0.00197 µM (active) | < 0.001 µM (active) | 0.00367 µM (active) | 0.00204 µM (active) |  | 0.0103 µM (active) |
| Cc1ccc(NC(=O)CC(=O)n2nc(C)c(/N=N/c3cccc(C)c3)c2C)cc1 | > 100 µM (inactive) | > 100 µM (inactive) | > 100 µM (inactive) | 65.8 µM (inactive) | 14 µM (inactive) | 38.5 µM (inactive) |  | > 100 µM (inactive) | > 100 µM (inactive) | > 100 µM (inactive) | > 100 µM (inactive) | > 100 µM (inactive) | > 100 µM (inactive) | 67.3 µM (inactive) | > 100 µM (inactive) | > 100 µM (inactive) | > 100 µM (inactive) | 18.1 µM (inactive) | > 100 µM (inactive) | > 100 µM (inactive) |
| COc1ccc(Br)c2c1CC(C(=O)O)CC2 (configuration not stated) | > 100 µM (inactive) | > 100 µM (inactive) | > 100 µM (inactive) | > 100 µM (inactive) | > 78.5 µM (inactive) | > 100 µM (inactive) | > 100 µM (inactive) | > 100 µM (inactive) | > 100 µM (inactive) | > 100 µM (inactive) | > 100 µM (inactive) | > 100 µM (inactive) | > 100 µM (inactive) | > 100 µM (inactive) | > 100 µM (inactive) | > 100 µM (inactive) | > 100 µM (inactive) | > 100 µM (inactive) | > 100 µM (inactive) | > 100 µM (inactive) |
| CNC(=O)/C=C/C1=CN2C(=O)c3ccc(C)c(O)c3NC(OC)C2C1 (configuration not stated) | < 0.01 µM (active) | < 0.01 µM (active) | < 0.0148 µM (active) | < 0.0143 µM (active) | 0.0166 µM (active) | < 0.0145 µM (active) |  | < 0.0163 µM (active) | < 0.0127 µM (active) | 0.0132 µM (active) | < 0.01 µM (active) | < 0.0134 µM (active) | 0.0234 µM (active) | < 0.01 µM (active) | < 0.0135 µM (active) | 0.0116 µM (active) | < 0.0206 µM (active) | 0.0151 µM (active) | < 0.0124 µM (active) | < 0.0161 µM (active) |
| CC(C)Oc1c(-c2c(OC(C)C)c(=O)c2=O)c(=O)c1=O | > 48 µM (inactive) | > 100 µM (inactive) | > 32.4 µM (inactive) | > 36.1 µM (inactive) | > 100 µM (inactive) | > 41.9 µM (inactive) | > 31.8 µM (inactive) | > 20.2 µM (inactive) | > 29 µM (inactive) | 0.344 µM (active) | 4.81 µM (inactive) |  | 29.9 µM (inactive) | > 56.6 µM (inactive) | > 65.8 µM (inactive) | > 41.6 µM (inactive) | > 100 µM (inactive) | 48 µM (inactive) | > 40 µM (inactive) | > 36.5 µM (inactive) |
| CC(C)(C)OC(=O)CN1CCNCCN(CC(=O)OC(C)(C)C)CCNCC1 | > 100 µM (inactive) | > 100 µM (inactive) | 26.2 µM (inactive) | > 100 µM (inactive) | > 100 µM (inactive) | > 100 µM (inactive) | 47 µM (inactive) | > 100 µM (inactive) | 65.6 µM (inactive) |  | > 100 µM (inactive) | > 100 µM (inactive) | 70 µM (inactive) | > 100 µM (inactive) | > 100 µM (inactive) | 50.6 µM (inactive) | > 100 µM (inactive) | > 100 µM (inactive) | > 100 µM (inactive) | 78.2 µM (inactive) |
| CC(C)(C)OC(=O)NC(Cc1ccc(O)cn1)C(N)=O (configuration not stated) | > 100 µM (inactive) | > 100 µM (inactive) | > 100 µM (inactive) | > 100 µM (inactive) | > 100 µM (inactive) | > 100 µM (inactive) |  | > 100 µM (inactive) | > 100 µM (inactive) | > 100 µM (inactive) | > 100 µM (inactive) | > 100 µM (inactive) | > 100 µM (inactive) | > 100 µM (inactive) | > 100 µM (inactive) | > 100 µM (inactive) |  | > 100 µM (inactive) |  | > 100 µM (inactive) |
| CC(=O)N1C(OC(C)C)CC(C)N1c1ccccc1 (configuration not stated) | > 10 µM (inactive) | > 10 µM (inactive) | > 10 µM (inactive) | > 10 µM (inactive) | > 10 µM (inactive) | > 10 µM (inactive) | > 10 µM (inactive) | > 10 µM (inactive) | > 10 µM (inactive) | > 10 µM (inactive) | > 10 µM (inactive) | > 10 µM (inactive) | > 10 µM (inactive) | > 10 µM (inactive) | > 10 µM (inactive) | > 10 µM (inactive) |  | > 10 µM (inactive) |  |  |
| ClCC[N+]12CC[N+](CCCl)(CC1)C2 | > 100 µM (inactive) | > 100 µM (inactive) | > 100 µM (inactive) | > 100 µM (inactive) | > 100 µM (inactive) | > 100 µM (inactive) | > 100 µM (inactive) | > 100 µM (inactive) | > 100 µM (inactive) | > 100 µM (inactive) | > 100 µM (inactive) | > 100 µM (inactive) | > 100 µM (inactive) | > 100 µM (inactive) | > 100 µM (inactive) | > 100 µM (inactive) | > 100 µM (inactive) | > 100 µM (inactive) | > 100 µM (inactive) | > 100 µM (inactive) |
| CC(NC(=O)C(Cc1ccc(OC(=O)c2ccccc2)cc1)NC(=O)OC(C)(C)C)C(=O)NC(Cc1ccccc1)C(=O)NCC(N)=O (configuration not stated) (Boc-Y(Bz)AFG-NH2; configuration not given here) | 19 µM (inactive) | 20.4 µM (inactive) | 27.5 µM (inactive) | 14.9 µM (inactive) | 23.6 µM (inactive) | 20.3 µM (inactive) | 25.8 µM (inactive) | 19.5 µM (inactive) | 25.8 µM (inactive) | 20.8 µM (inactive) | > 100 µM (inactive) |  | 24 µM (inactive) | 20.9 µM (inactive) | 24.9 µM (inactive) | 26.3 µM (inactive) | 19.2 µM (inactive) | 22.8 µM (inactive) | 18.8 µM (inactive) | 17.8 µM (inactive) |

Source: ChEMBL document CHEMBL1201862, “PubChem BioAssay data set” (2004)
